The results in this text go back to patent US20240101576A1, “HETEROCYCLIC INHIBITORS OF EGFR AND/OR HER2, FOR USE IN THE TREATMENT OF CANCER” (Scorpion Therapeutics, Inc., priority 2020, published 2024).

What all share (type): cell-based
The target in one experiment is T1, EGFR WT (Ba/F3 cells) (Homo sapiens, UniProt P00533).
T1 construct: expressed in transfected cells; host or cells: Ba/F3 (murine pro-B cells), retroviral transduction, puromycin selection, maintained with EGF
Kind of experiment: Inhibitor activity on EGFR-dependent cell growth (CellTiter-Glo, 72 h), Ba/F3 EGFR WT. The following applies: read-out: BaF3 WT IC50. In outline: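 This growth assay used Ba/F3 cells that depend on wild-type EGFR and are kept in EGF without IL3. Compounds were made up as 10 mM DMSO stocks and diluted 3-fold over 10 points. 120 nL went onto 600 cells/well. After 72 hours, 40 μL CellTiter-Glo was added and luminescence read on EnVision after 30 min.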
In general terms: Cellular ATP, detected with luciferase, serves as a proxy for viable cell number.

Experiment [1] has as its target T2, EGFR exon 20 SVD Ins D770_N771 (Ba/F3 cells) (Homo sapiens, UniProt P00533, INS770SVD).
T2 construct: expressed in transfected cells; host or cells: Ba/F3 (murine pro-B cells), retroviral transduction, puromycin selection, IL3-independent pool
Kind of experiment: Inhibitor activity on EGFR-dependent cell growth (CellTiter-Glo, 72 h), Ba/F3 EGFR exon 20 SVD Ins. The following applies: read-out: BaF3 SVD IC50. In outline:
(§1)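 IC50s derive from a sigmoidal dose–response fit of CellTiter-Glo signal. The signal was normalised between […]-treated cells and cell-free medium. Ba/F3 mutant-EGFR cells, seeded at 400–800/well depending on the line, had 72 h of exposure to a 10-point, 3-fold compound series.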

Experiment [2] has as its target T3, EGFR exon 20 FQEA Ins A763_V764 (Ba/F3 cells) (Homo sapiens, UniProt P00533, INS763FQEA).
T3 construct: expressed in transfected cells; host or cells: Ba/F3 (murine pro-B cells), retroviral transduction, puromycin selection, IL3-independent pool
Kind of experiment: Inhibitor activity on EGFR-dependent cell growth (CellTiter-Glo, 72 h), Ba/F3 EGFR exon 20 FQEA Ins. The following applies: read-out: BaF3 FQEA IC50. In outline:
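Cell viability was measured by CellTiter-Glo after a three-day treatment. The IL3-free Ba/F3 lines carried L858R, L858R/C797S, exon 19 deletion or FQEA insertion EGFR and were seeded at 400, 600, 800 and 800 cells/well respectively.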

In experiment [3] the target is T4, EGFR exon 20 ASV Ins V769_D770 (Ba/F3 cells) (Homo sapiens, UniProt P00533, INS769ASV).
T4 construct: expressed in transfected cells; host or cells: Ba/F3 (murine pro-B cells), retroviral transduction, puromycin selection, IL3-independent pool
T4 sequence (P00533 with tags, fused parts or gaps INS769ASV): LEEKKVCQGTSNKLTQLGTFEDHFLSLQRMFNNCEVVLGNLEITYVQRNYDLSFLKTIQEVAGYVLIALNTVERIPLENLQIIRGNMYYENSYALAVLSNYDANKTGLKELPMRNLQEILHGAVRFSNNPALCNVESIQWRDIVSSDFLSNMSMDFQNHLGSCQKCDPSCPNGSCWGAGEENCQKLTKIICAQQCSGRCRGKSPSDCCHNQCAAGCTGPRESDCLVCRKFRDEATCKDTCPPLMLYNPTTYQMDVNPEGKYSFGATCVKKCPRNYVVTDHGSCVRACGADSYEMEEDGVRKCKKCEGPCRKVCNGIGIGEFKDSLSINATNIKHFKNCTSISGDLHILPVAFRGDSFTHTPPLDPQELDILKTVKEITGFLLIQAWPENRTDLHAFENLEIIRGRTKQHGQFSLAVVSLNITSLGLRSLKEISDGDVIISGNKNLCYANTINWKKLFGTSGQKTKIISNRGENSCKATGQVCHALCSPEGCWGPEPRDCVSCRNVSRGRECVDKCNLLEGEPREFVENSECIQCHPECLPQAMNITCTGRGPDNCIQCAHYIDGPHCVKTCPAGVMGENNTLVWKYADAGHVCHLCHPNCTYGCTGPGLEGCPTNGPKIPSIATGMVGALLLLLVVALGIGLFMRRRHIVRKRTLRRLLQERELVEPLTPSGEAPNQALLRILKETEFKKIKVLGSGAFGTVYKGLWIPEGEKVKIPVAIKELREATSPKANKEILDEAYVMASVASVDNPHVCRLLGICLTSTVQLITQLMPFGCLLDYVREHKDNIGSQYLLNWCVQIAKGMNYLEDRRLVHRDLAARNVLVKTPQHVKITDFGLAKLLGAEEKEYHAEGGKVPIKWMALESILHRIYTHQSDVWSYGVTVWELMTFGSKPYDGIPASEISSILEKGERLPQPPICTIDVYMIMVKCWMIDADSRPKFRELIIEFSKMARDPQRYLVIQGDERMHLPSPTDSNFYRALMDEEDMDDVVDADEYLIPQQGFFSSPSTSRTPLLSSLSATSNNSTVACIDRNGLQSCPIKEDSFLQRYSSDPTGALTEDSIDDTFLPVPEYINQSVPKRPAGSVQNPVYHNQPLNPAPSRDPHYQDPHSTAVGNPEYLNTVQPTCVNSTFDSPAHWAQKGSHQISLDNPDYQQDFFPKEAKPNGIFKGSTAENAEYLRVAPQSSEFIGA
Kind of experiment: Inhibitor activity on EGFR-dependent cell growth (CellTiter-Glo, 72 h), Ba/F3 EGFR exon 20 ASV Ins. Particulars: read-out: BaF3 ASV IC50. The essentials:
as §1

T1 sequence (P00533 25-1210): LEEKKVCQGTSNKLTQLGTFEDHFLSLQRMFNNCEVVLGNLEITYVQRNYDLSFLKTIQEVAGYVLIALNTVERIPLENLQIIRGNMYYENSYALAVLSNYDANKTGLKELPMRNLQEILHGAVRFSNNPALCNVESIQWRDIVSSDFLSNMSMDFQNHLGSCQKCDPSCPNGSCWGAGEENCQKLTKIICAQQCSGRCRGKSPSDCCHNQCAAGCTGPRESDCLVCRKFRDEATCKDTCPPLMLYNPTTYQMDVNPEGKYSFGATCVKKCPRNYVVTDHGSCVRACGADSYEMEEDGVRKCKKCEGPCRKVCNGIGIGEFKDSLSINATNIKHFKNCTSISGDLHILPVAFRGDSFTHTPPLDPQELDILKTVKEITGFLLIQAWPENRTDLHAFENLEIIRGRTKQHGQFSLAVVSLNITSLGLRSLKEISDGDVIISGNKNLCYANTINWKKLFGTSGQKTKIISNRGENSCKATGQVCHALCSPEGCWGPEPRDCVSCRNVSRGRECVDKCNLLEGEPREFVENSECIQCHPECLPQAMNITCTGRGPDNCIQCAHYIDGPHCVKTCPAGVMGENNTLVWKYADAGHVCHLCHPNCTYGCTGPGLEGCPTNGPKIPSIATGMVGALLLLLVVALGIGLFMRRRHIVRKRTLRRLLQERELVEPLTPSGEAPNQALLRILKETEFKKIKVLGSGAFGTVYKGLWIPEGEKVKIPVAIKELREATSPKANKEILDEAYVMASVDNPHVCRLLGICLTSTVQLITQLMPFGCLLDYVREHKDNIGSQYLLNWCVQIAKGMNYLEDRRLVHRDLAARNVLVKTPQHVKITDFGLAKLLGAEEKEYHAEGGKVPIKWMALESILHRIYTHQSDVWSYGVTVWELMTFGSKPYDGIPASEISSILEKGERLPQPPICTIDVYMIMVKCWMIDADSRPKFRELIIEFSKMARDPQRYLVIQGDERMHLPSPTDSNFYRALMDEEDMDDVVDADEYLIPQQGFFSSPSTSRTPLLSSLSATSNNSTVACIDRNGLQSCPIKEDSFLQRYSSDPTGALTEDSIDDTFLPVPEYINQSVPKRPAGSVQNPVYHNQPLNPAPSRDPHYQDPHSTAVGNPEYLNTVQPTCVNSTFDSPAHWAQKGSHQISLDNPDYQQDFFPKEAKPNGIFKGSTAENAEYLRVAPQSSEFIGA
T3 sequence (P00533 with tags, fused parts or gaps INS763FQEA): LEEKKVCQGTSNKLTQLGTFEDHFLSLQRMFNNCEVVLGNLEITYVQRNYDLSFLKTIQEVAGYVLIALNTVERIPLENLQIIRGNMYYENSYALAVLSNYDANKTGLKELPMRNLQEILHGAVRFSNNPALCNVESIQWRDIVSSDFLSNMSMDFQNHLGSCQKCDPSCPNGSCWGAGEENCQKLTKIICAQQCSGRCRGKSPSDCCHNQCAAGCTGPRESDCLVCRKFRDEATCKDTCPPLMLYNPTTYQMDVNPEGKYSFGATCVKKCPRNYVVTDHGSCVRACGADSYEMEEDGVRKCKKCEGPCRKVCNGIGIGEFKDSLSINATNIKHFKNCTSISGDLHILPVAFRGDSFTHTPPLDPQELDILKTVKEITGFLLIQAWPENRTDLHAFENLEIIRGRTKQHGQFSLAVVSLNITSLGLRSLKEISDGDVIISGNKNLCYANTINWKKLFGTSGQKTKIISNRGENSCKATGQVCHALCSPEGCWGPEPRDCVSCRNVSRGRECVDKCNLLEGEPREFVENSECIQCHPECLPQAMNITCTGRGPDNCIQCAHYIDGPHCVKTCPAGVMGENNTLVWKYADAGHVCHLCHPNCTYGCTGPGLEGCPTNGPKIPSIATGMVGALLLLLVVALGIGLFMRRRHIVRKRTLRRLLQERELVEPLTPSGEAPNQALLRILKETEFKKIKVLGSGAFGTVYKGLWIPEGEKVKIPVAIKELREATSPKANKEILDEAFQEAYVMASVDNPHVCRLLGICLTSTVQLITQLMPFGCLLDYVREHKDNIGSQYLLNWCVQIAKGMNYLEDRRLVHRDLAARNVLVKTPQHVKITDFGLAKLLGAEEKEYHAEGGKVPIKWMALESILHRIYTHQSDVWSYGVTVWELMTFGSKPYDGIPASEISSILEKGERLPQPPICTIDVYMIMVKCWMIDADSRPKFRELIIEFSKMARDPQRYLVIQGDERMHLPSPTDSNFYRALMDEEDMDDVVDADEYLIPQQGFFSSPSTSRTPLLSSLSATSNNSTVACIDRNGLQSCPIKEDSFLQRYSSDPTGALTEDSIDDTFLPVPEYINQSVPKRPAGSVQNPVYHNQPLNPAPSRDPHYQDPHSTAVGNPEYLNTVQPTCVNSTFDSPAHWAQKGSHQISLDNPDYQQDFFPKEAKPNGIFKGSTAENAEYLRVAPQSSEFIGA
T2 sequence (P00533 with tags, fused parts or gaps INS770SVD): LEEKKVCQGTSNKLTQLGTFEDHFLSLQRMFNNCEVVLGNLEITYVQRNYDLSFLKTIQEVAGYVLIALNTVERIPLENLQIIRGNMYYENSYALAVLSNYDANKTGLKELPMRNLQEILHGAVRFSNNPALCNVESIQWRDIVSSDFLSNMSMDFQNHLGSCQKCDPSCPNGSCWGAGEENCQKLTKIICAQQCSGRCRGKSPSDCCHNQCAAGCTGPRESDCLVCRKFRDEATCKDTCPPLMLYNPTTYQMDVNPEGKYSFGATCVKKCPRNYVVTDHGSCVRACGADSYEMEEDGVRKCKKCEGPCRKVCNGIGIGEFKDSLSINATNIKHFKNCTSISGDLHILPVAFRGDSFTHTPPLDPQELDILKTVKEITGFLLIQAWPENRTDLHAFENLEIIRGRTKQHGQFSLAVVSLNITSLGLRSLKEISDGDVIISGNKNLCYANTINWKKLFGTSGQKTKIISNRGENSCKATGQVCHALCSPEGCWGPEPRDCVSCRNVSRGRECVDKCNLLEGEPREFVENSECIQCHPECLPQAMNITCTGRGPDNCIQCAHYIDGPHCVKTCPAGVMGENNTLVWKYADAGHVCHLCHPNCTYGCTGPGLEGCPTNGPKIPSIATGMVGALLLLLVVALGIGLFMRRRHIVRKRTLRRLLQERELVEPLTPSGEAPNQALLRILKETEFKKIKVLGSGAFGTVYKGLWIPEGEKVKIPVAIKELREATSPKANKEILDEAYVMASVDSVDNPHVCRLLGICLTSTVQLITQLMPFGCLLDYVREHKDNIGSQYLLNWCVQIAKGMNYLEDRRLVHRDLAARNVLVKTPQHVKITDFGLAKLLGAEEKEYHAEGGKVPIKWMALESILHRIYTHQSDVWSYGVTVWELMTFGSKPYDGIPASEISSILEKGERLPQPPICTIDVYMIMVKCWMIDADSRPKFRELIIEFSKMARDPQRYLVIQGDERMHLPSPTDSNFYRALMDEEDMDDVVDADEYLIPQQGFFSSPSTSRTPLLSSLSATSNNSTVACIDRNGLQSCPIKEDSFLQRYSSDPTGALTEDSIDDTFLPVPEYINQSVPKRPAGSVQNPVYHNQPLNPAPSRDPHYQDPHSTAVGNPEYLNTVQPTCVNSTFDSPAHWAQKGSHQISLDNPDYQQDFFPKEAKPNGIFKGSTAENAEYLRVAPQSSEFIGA

As for `COc1c(Cl)cccc1Nc1c(-c2ccncc2F)[nH]c2c1C(=O)NCC2CCF` (centres unmarked) [Compound 473, 3-[(3-chloro-2-methoxyphenyl)amino]-7-(2-fluoroethyl)-2-(3-fluoropyridin-4-yl)-1H,5H,6H,7H-pyrrolo[3,2-c]pyridin-4-one], the IC50 (in general, the point on the concentration scale where inhibition reaches its midpoint) was over 1 µM at EGFR WT (Ba/F3 cells), 0.1 to 1 µM in experiment [1], 0.1 to 1 µM in experiment [2] and 0.1 to 1 µM in experiment [3].
`COc1ncc2nccc(-c3[nH]c4c(c3Nc3cc(F)cc(Cl)c3OC)C(=O)NCC4)c2n1` [Compound 792, 3-[(3-chloro-5-fluoro-2-methoxyphenyl)amino]-2-[2-methoxypyrido[3,2-d]pyrimidin-8-yl]-1H,5H,6H,7H-pyrrolo[3,2-c]pyridin-4-one]: the IC50 at EGFR WT (Ba/F3 cells) was 0.1 to 1 µM; in experiment [1], under 0.1 µM; in experiment [2], under 0.1 µM; in experiment [3] it was under 0.1 µM.
Regarding `COc1c(F)cccc1Nc1c(-c2ccnc3cnc(OC4CC4)nc23)[nH]c2c1C(=O)NCC2` [compound 413], the IC50 (on EGFR WT (Ba/F3 cells); in experiment [1]; in experiment [2]; in experiment [3]) was under 0.1 µM throughout.
Take `COc1c(Cl)cccc1Nc1c(-c2ccncc2F)[nH]c2c1C(=O)NC[C@]21CCN(C(C)=O)C1` [compound 491]: the IC50 (on EGFR WT (Ba/F3 cells); in experiment [1]; in experiment [2]; in experiment [3]) was over 1 µM in each case.
As to `COc1c(Cl)cccc1Nc1c(-c2ccnc3ccc(OCCCN4CCOCC4)nc23)[nH]c2c1C(=O)NCC2` [compound 503, 3-[(3-chloro-2-methoxyphenyl)amino]-2-{6-[3-(morpholin-4-yl)propoxy]-1,5-naphthyridin-4-yl}-1H,5H,6H,7H-pyrrolo[3,2-c] pyridin-4-one], the IC50 is 0.1 to 1 µM at EGFR WT (Ba/F3 cells), under 0.1 µM in experiment [1], under 0.1 µM in experiment [2] and under 0.1 µM in experiment [3].
As for `COc1c(Cl)cccc1Nc1c(-c2ccncc2F)[nH]c2c1C(=O)NC[C@@H]2CC(C)(C)O` [Compound 496, (7S)-3-[(3-chloro-2-methoxyphenyl)amino]-2-(3-fluoropyridin-4-yl)-7-(2-hydroxy-2-methylpropyl)-1H,5H,6H,7H-pyrrolo[3,2-c]pyridin-4-one], the IC50 was over 1 µM at EGFR WT (Ba/F3 cells), 0.1 to 1 µM in experiment [1], 0.1 to 1 µM in experiment [2] and 0.1 to 1 µM in experiment [3].
Turning to `COc1ccc2ncc(F)c(-c3[nH]c4c(c3Nc3cccc(Cl)c3OC)C(=O)NCC4)c2n1` [compound 829, 3-[(3-chloro-2-methoxyphenyl)amino]-2-(3-fluoro-6-methoxy-1,5-naphthyridin-4-yl)-1H,5H,6H,7H-pyrrolo[3,2-c]pyridin-4-one], the IC50 (on EGFR WT (Ba/F3 cells); in experiment [1]; in experiment [2]; in experiment [3]) was over 1 µM throughout.
As for `COc1c(F)cccc1Nc1c(-c2ccnc3cnc(C(F)(F)F)nc23)[nH]c2c1C(=O)NCC2` [compound 417], the IC50 on EGFR WT (Ba/F3 cells) is over 1 µM; in experiment [1] it was 0.1 to 1 µM; in experiment [2], 0.1 to 1 µM; in experiment [3] it was 0.1 to 1 µM.
With `COc1c(Cl)cccc1Nc1c(-c2ccnc(Nc3cnn(C(C)C)c3)n2)[nH]c2c1C(=O)NCC2` [compound 516, 3-[(3-chloro-2-methoxyphenyl)amino]-2-{2-[(1-isopropylpyrazol-4-yl)amino]pyrimidin-4-yl}-1H,5H,6H,7H-pyrrolo[3,2-c]pyridin-4-one], the IC50 was 0.1 to 1 µM at EGFR WT (Ba/F3 cells), under 0.1 µM in experiment [1], under 0.1 µM in experiment [2] and under 0.1 µM in experiment [3].
With `COc1c(F)cccc1Nc1c(-c2ccnc3[nH]ccc23)[nH]c2c1C(=O)NCC2` [compound 252], the IC50 is over 1 µM at EGFR WT (Ba/F3 cells), 0.1 to 1 µM in experiment [1], 0.1 to 1 µM in experiment [2] and 0.1 to 1 µM in experiment [3].
Take `COc1c(Cl)cccc1Nc1c(-c2ccnc3cnc(OCCCN4CCOCC4)nc23)[nH]c2c1C(=O)NCC2` [compound 505, 3-[(3-chloro-2-methoxyphenyl)amino]-2-{2-[3-(morpholin-4-yl)propoxy]pyrido[3,2-d]pyrimidin-8-yl}-1H,5H,6H,7H-pyrrolo[3,2-c]pyridin-4-one]: the IC50 on EGFR WT (Ba/F3 cells) is over 1 µM; in experiment [1], under 0.1 µM; in experiment [2], 0.1 to 1 µM; in experiment [3] it was under 0.1 µM.
Turning to `COc1c(Cl)cccc1Nc1c(-c2ccnc(C(F)F)n2)[nH]c2c1C(=O)NCC2` [compound 472, 3-[(3-chloro-2-methoxyphenyl)amino]-2-[2-(difluoromethyl)pyrimidin-4-yl]-1H,5H,6H,7H-pyrrolo[3,2-c]pyridin-4-one], the IC50 is over 1 µM on EGFR WT (Ba/F3 cells), 0.1 to 1 µM in experiment [1], over 1 µM in experiment [2] and 0.1 to 1 µM in experiment [3].
As for `COc1c(Cl)cccc1Nc1c(-c2ccncc2F)[nH]c2c1C(=O)NC[C@@]21CCN(S(C)(=O)=O)C1` [compound 493], the IC50 at EGFR WT (Ba/F3 cells) was over 1 µM; in experiment [1], 0.1 to 1 µM; in experiment [2], 0.1 to 1 µM; in experiment [3], 0.1 to 1 µM.
Regarding `COCC[C@@H]1CNC(=O)c2c(Nc3cccc(Cl)c3OC)c(-c3ccncn3)n(C)c21` (single isomer, unassigned) [Compound 796], the 50% inhibitory concentration (IC50) (on EGFR WT (Ba/F3 cells); in experiment [1]; in experiment [2]; in experiment [3]) was over 1 µM in each case.
On to `COc1c(Cl)cccc1Nc1c(-c2ccnc(NCc3ccn(C)n3)n2)[nH]c2c1C(=O)NCC2` [Compound 709, 3-[(3-chloro-2-methoxyphenyl)amino]-2-(2-[[(1-methylpyrazol-3-yl)methyl]amino]pyrimidin-4-yl)-1H,5H,6H,7H-pyrrolo[3,2-c]pyridin-4-one], for which the IC50 at EGFR WT (Ba/F3 cells) was 0.1 to 1 µM; in experiment [1], under 0.1 µM; in experiment [2] it was 0.1 to 1 µM; in experiment [3] it was under 0.1 µM.
Regarding `COc1c(Cl)cccc1Nc1c(-c2ccncc2F)[nH]c2c1C(=O)NC[C@H]2CCF` [compound 812], the half-maximal inhibitory concentration (IC50) on EGFR WT (Ba/F3 cells) was over 1 µM; in experiment [1], 0.1 to 1 µM; in experiment [2], 0.1 to 1 µM; in experiment [3], 0.1 to 1 µM.
In the case of `COCC[C@H]1CNC(=O)c2c1[nH]c(-c1ccncc1F)c2Nc1cccc(F)c1C` [compound 824], the concentration for half-maximal inhibition (IC50) at EGFR WT (Ba/F3 cells) is over 1 µM; in experiment [1], 0.1 to 1 µM; in experiment [2] it was 0.1 to 1 µM; in experiment [3], 0.1 to 1 µM.
As for `COc1c(Cl)cccc1Nc1c(-c2ccnc(NC[C@@H]3COCCO3)n2)[nH]c2c1C(=O)NCC2` [compound 724, 3-[(3-chloro-2-methoxyphenyl)amino]-2-[2-[(1,4-dioxan-2-ylmethyl)amino]pyrimidin-4-yl]-1H,5H,6H,7H-pyrrolo[3,2-c]pyridin-4-one], the IC50 on EGFR WT (Ba/F3 cells) is over 1 µM; in experiment [1], 0.1 to 1 µM; in experiment [2], over 1 µM; in experiment [3] it was 0.1 to 1 µM.
On to `COc1c(Cl)cccc1Nc1c(-c2ccncc2F)[nH]c2c1C(=O)NC[C@H]2CC(N)=O` [Compound 489], for which the concentration for half-maximal inhibition (IC50) on EGFR WT (Ba/F3 cells) was over 1 µM; in experiment [1] it was 0.1 to 1 µM; in experiment [2] it was 0.1 to 1 µM; in experiment [3], 0.1 to 1 µM.
On to `COc1c(Cl)cccc1Nc1c(-c2ccncc2F)[nH]c2c1C(=O)NC[C@@]21CCN(C)C1` [compound 816], for which the 50% inhibitory concentration (IC50) was over 1 µM on EGFR WT (Ba/F3 cells), 0.1 to 1 µM in experiment [1], 0.1 to 1 µM in experiment [2] and 0.1 to 1 µM in experiment [3].
In the case of `COc1c(Cl)cccc1Nc1c(-c2ccnc3ccc(OC4CC4)nc23)[nH]c2c1C(=O)NC[C@@H]2C` [Compound 770, (S)-3-((3-chloro-2-methoxyphenyl)amino)-2-(6-cyclopropoxy-1,5-naphthyridin-4-yl)-7-methyl-1,5,6,7-tetrahydro-4H-pyrrolo[3,2-c]pyridin-4-one], the half-inhibitory concentration (IC50) (at EGFR WT (Ba/F3 cells); in experiment [1]; in experiment [2]; in experiment [3]) was under 0.1 µM in each case.
As to `COc1c(Cl)cccc1Nc1c(-c2ccnc(NC[C@H]3CCO3)n2)[nH]c2c1C(=O)NCC2` [compound 720], the IC50 (at EGFR WT (Ba/F3 cells); in experiment [1]; in experiment [2]; in experiment [3]) was over 1 µM throughout.
In the case of `COc1c(Cl)cccc1Nc1c(-c2ccnc3ccc(OC(C)C)nc23)[nH]c2c1C(=O)NCC2` [compound 762, 3-[(3-chloro-2-methoxyphenyl)amino]-2-(6-isopropoxy-1,5-naphthyridin-4-yl)-1H,5H,6H,7H-pyrrolo[3,2-c]pyridin-4-one], the concentration for half-maximal inhibition (IC50) (on EGFR WT (Ba/F3 cells); in experiment [1]; in experiment [2]; in experiment [3]) was under 0.1 µM each time.
